Test results published in patent EP4656630A1, “NOVEL COMPOUND AS LYSYL-TRNA SYNTHETASE 1 INHIBITOR, AND USE THEREOF” (Zymedi Co., Ltd., priority 2023, dated 2024).
Values belong to the molecule of their own block, whether it stands above or below them.

Columns and labels:
[1] = tested on: Raw 264.7 cells; assay: LN (Laminin 421)-induced immune cell migration, Transwell; format: cell-based; conditions: Mus musculus, RAW264.7; 3 µM compound, LN (Laminin 421 1 µg/ml), 24 hours, % inhibition compared to control group; read-out: Migration inhibitor % (3uM)
Procedure: Cell migration was assessed based on the method described in the prior literature (Park, S. G. et al. Human lysyl-tRNA synthetase is secreted to trigger proinflammatory response. Proceedings of the National Academy of Sciences, 2005, 102.18: 6356-6361.). The specific experimental method is as follows. A Transwell (Corning#3421-5µm pore) was coated with gelatin (0.5mg/ml), and then Raw 264.7 cells (1 x 10^5 cells/well) were seeded in the upper chamber. Serum-free medium (Serum Free DMEM, 500 µl) containing LN (Laminin 421 1 µg/ml) was added to the lower chamber. Each compound was treated at a concentration of 3µM in the upper chamber. After 24 hours, the cells were fixed with 70% methanol for 30 minutes and stained with 50% hematoxylin for 30 minutes. Non-migrating cells on the upper side of the membrane were removed with a cotton swab, and the membrane was mounted on a slide. Migrating cells on the lower side of the membrane were observed under a high-power microscope, and the number of cells was measured from the obtained images and expressed as the inhibition rate (% inhibition) compared to the control group.

[2] = target: T1, KARS1 and 37LR (Homo sapiens, UniProt Q15046); assay: Cell-free ELISA of KARS1 and 37LR (laminin receptor) binding; conditions: 10 µM compound, 1 hour, plate coated with KARS1 (1-207aa), LRF
T1 construct: KARS1 (1-207aa)
Procedure: Next, based on the mechanism of action, a cell-free ELISA analysis was conducted to select compounds with high inhibitory activity on the binding of KARS1 and LR (laminin receptor).

[3] = tested on: Raw264.7 cells; assay: KARS1-induced trans-migration assay; format: cell-based, mouse; conditions: for inhibition at 1 µM: 1 µM compound, read-out: KARS1-induced Raw264.7 cell migration (% inhibition, 1uM)
Procedure: C0001 inhibits the binding of KARS1 and 67LR, thereby blocking the migration of monocytes/macrophages and suppressing inflammation. Accordingly, a trans-migration assay using mouse macrophages (Raw264.7) was conducted to preliminarily screen drugs that inhibit the migration of monocytes/macrophages.
Based on this, when KARS1 protein was directly treated externally instead of LN, the trans-migration of Raw264.7 was induced, and the cell migration inhibitory effect of the KARS1 inhibitor C0001 was confirmed. It was verified that C0001, which specifically binds to KARS1, can inhibit cell migration by binding to extracellular KARS1, in addition to the mechanism of inhibiting cell membrane migration of KARS1 induced by laminin and its binding to 67LR, thereby enabling this analysis to be used as a direct method for evaluating in vitro activity against KARS1.
Next, preliminary candidate substances with high inhibitory activity at 1 µM were treated at concentrations of 0.1~4 µM for analysis.

T1 sequence (Q15046 1-207): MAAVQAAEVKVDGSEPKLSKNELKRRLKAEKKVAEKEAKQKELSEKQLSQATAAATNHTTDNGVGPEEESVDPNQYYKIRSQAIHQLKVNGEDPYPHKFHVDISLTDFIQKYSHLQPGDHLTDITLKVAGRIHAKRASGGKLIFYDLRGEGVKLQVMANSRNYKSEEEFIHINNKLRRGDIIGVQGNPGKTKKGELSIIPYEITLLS

inhibition at 10 µM [2]: -6%
Compound: COc1ccc(CCN(Cc2ccc(-c3ccccc3)cc2)c2nc3cccnc3s2)cc1 [Compound 1, N-([1,1'-biphenyl]-4-ylmethyl)-N-(4-methoxyphenethyl)thiazolo[5,4-b]pyridin-2-amine]
inhibition at 3 µM [1]: 8.8%
inhibition at 1 µM ([3]; Mus musculus, RAW264.7): 19.8%

inhibition at 10 µM [2]: 79.4%
Compound: COc1ccc(CCN(Cc2ccc(CCC(=O)O)cc2)c2nc3cccc(F)c3s2)cc1 [Compound 2, 3-(4-(((7-fluorobenzo[d]thiazol-2-yl)(4-methoxyphenethyl)amino)-methyl)phenyl)propanoic acid]
inhibition at 3 µM [1]: 15.7%
inhibition at 1 µM ([3]; Mus musculus, RAW264.7): 98.1%

inhibition at 10 µM [2]: 4.7%
Compound: CCN(CC)C(=O)C#Cc1ccc(CN(CCc2ccc(OC)cc2)c2nc3cccc(F)c3s2)cc1 [Compound 3, N,N-diethyl-3-(4-(((7-fluorobenzo[d]thiazol-2-yl)(4-methoxyphenethyl)amino)methyl)phenyl)propiolamide]
inhibition at 3 µM [1]: 0%
inhibition at 1 µM ([3]; Mus musculus, RAW264.7): 22.6%

inhibition at 10 µM [2]: 13.8%
Compound: CNC(=O)C#Cc1ccc(CN(CCc2ccc(OC)cc2)c2nc3cccc(F)c3s2)cc1 [Compound 4, 3-(4-(((7-fluorobenzo[d]thiazol-2-yl)(4-methoxyphenethyl)amino)-methyl)phenyl)-N-methylpropiolamide]
inhibition at 3 µM [1]: 88%
inhibition at 1 µM ([3]; Mus musculus, RAW264.7): 9.8%

inhibition at 10 µM [2]: 0.8%
Compound: COc1ccc(CCN(Cc2ccc(C#CC(N)=O)cc2)c2nc3cccc(F)c3s2)cc1 [Compound 5, 3-(4-(((7-fluorobenzo[d]thiazol-2-yl)(4-methoxyphenethyl)amino)-methyl)phenyl)propiolamide]
inhibition at 3 µM [1]: 77.7%
inhibition at 1 µM ([3]; Mus musculus, RAW264.7): 95.6%

inhibition at 10 µM [2]: 14.8%
Compound: COc1ccc(CCNc2ncc3ccn(C)c3n2)cc1 [Compound 6, N-(4-methoxyphenethyl)-7-methyl-7H-pyrrolo[2,3-d]pyrimidin-2-amine]
inhibition at 3 µM [1]: 5.1%
inhibition at 1 µM ([3]; Mus musculus, RAW264.7): 23.5%

inhibition at 10 µM [2]: 9.5%
Compound: COc1ccc(CCN(Cc2ccc(Br)cc2)c2ncc3ccn(C)c3n2)cc1 [Compound 7, N-(4-bromobenzyl)-N-(4-methoxyphenethyl)-7-methyl-7H-pyrrolo[2,3-d]pyrimidin-2-amine]
inhibition at 3 µM [1]: 10.9%
inhibition at 1 µM ([3]; Mus musculus, RAW264.7): 39.1%

Compound: COc1ccc(CCN(Cc2cccc(C#C[Si](C)(C)C)c2)c2nc3cccc(F)c3s2)cc1 [Compound 8, 7-fluoro-N-(4-methoxyphenethyl)-N-(3-((trimethylsilyl)ethynyl)-benzyl)benzo[d]thiazol-2-amine]
inhibition at 3 µM [1]: 27%
inhibition at 10 µM [2]: 13.4%

inhibition at 10 µM [2]: 8.5%
Compound: C#Cc1cccc(CN(CCc2ccc(OC)cc2)c2nc3cccc(F)c3s2)c1 [Compound 9, N-(3-ethynylbenzyl)-7-fluoro-N-(4-methoxyphenethyl)benzo[d]thiazol-2-amine]
inhibition at 3 µM [1]: 0%

Compound: COc1ccc(CCN(Cc2ccc(C#C[Si](C)(C)C)cc2)c2ncc3ccn(C)c3n2)cc1 [Compound 10, N-(4-methoxyphenethyl)-7-methyl-N-(4-((trimethylsilyl)ethynyl)-benzyl)-7H-pyrrolo[2,3-d]pyrimidin-2-amine]
inhibition at 3 µM [1]: 0%
inhibition at 10 µM [2]: 9.8%
inhibition at 1 µM ([3]; Mus musculus, RAW264.7): 11.7%

inhibition at 10 µM [2]: 3%
Compound: C#Cc1ccc(CN(CCc2ccc(OC)cc2)c2ncc3ccn(C)c3n2)cc1 [Compound 11, N-(4-ethynylbenzyl)-N-(4-methoxyphenethyl)-7-methyl-7H-pyrrolo[2,3-d]pyrimidin-2-amine]
inhibition at 3 µM [1]: 12%
inhibition at 1 µM ([3]; Mus musculus, RAW264.7): 37.8%

inhibition at 10 µM [2]: 57.9%
Compound: COc1ccc(CCN(Cc2ccc(C#CC(=O)O)cc2)c2ncc3ccn(C)c3n2)cc1 [Compound 12, 3-(4-(((4-methoxyphenethyl)(7-methyl-7H-pyrrolo[2,3-d]pyrimidin-2-yl)amino)methyl)phenyl)propiolic acid]
inhibition at 3 µM [1]: 43%
inhibition at 1 µM ([3]; Mus musculus, RAW264.7): 55.1%

Compound: COc1ccc(CCN(Cc2nc3cc(C(=O)O)ccc3o2)c2nc3cccc(F)c3s2)cc1 [Compound 28, 2-(((7-fluorobenzo[d]thiazol-2-yl)(4-methoxyphenethyl)amino)-methyl)benzo[d]oxazole-5-carboxylic acid]
inhibition at 3 µM [1]: 16.4%
inhibition at 1 µM ([3]; Mus musculus, RAW264.7): 43.2%

Compound: COc1ccc(CCN(Cc2ccc3c(c2)CNC3)c2nc3cccc(F)c3s2)cc1 [Compound 29, 7-fluoro-N-(isoindolin-5-ylmethyl)-N-(4-methoxyphenethyl)benzo-[d]thiazol-2-amine]
inhibition at 3 µM [1]: 33%
inhibition at 1 µM ([3]; Mus musculus, RAW264.7): 4.1%

Compound: COc1ccc(CCN(Cc2ccc3c(c2)CN(S(N)(=O)=O)C3)c2nc3cccc(F)c3s2)cc1 [Compound 31, 5-(((7-fluorobenzo[d]thiazol-2-yl)(4-methoxyphenethyl)amino)-methyl)isoindoline-2-sulfonamide]
inhibition at 3 µM [1]: 72.8%
inhibition at 1 µM ([3]; Mus musculus, RAW264.7): 28.3%

Compound: COc1ccc(CCN(Cc2ccc(-n3ccc(C(=O)O)c3)cc2)c2nc3cccc(F)c3s2)cc1 [Compound 34, 1-(4-(((7-fluorobenzo[d]thiazol-2-yl)(4-methoxyphenethyl)amino)-methyl)phenyl)-1H-pyrrole-3-carboxylic acid]
inhibition at 3 µM [1]: 13%
inhibition at 1 µM ([3]; Mus musculus, RAW264.7): 99.4%

Compound: COc1ccc(CCN(Cc2ccc(C3(C(=O)O)CCC3)cc2)c2nc3cccc(F)c3s2)cc1 [Compound 36, 1-(4-(((7-fluorobenzo[d]thiazol-2-yl)(4-methoxyphenethyl)amino)-methyl)phenyl)cyclobutane-1-carboxylic acid]
inhibition at 3 µM [1]: 21.8%
inhibition at 1 µM ([3]; Mus musculus, RAW264.7): 96.8%

Compound: COc1ccc(CCN(Cc2ccc(N3CC[C@@H](C(=O)O)C3)cc2)c2nc3ccccc3o2)cc1 [Compound 37, (R)-1-(4-((benzo[d]oxazol-2-yl(4-methoxyphenethyl)amino)methyl)-phenyl)pyrrolidine-3-carboxylic acid]
inhibition at 3 µM [1]: 19.3%
inhibition at 1 µM ([3]; Mus musculus, RAW264.7): 50.6%

Compound: COc1ccc(CCN(Cc2ccc(N3CC[C@H](C(=O)O)C3)cc2)c2nc3ccccc3o2)cc1 [Compound 38, (S)-1-(4-((benzo[d]oxazol-2-yl(4-methoxyphenethyl)amino)methyl)-phenyl)pyrrolidine-3-carboxylic acid]
inhibition at 3 µM [1]: 15.3%
inhibition at 1 µM ([3]; Mus musculus, RAW264.7): 40.4%

Compound: COc1ccc(CCN(Cc2ccc(C#CC(=O)O)cc2)c2nc3cccnc3o2)cc1 [Compound 44, 3-(4-(((4-methoxyphenethyl)(oxazolo[5,4-b]pyridin-2-yl)amino)-methyl)phenyl)propiolic acid]
inhibition at 3 µM [1]: 1.1%

Compound: COc1ccc(CCN(Cc2ccc(C#CC(=O)O)cc2)c2nc3ccc(=O)[nH]c3s2)cc1 [Compound 45, 3-(4-(((4-methoxyphenethyl)(5-oxo-4,5-dihydrothiazolo[5,4-b]pyridin-2-yl)amino)methyl)phenyl)propiolic acid]
inhibition at 3 µM [1]: 7.8%
inhibition at 1 µM ([3]; Mus musculus, RAW264.7): 39.8%

Compound: COc1ccc(CCN(Cc2ccc(N3CCC(C(=O)O)CC3)cc2)c2nc3cccc(F)c3s2)cc1 [Compound 46, 1-(4-(((7-fluorobenzo[d]thiazol-2-yl)(4-methoxyphenethyl)amino)-methyl)phenyl)piperidine-4-carboxylic acid]
inhibition at 1 µM ([3]; Mus musculus, RAW264.7): 90.9%

EC50 ([3]; Mus musculus, RAW264.7, KARS1-induced cell migration, 0.1~4 µM): 80 nM
Compound: COc1ccc(CCN(Cc2ccc(-n3cc(C(=O)O)cn3)cc2)c2nc3cccc(F)c3s2)cc1 [Compound 47, 1-(4-(((7-fluorobenzo[d]thiazol-2-yl)(4-methoxyphenethyl)amino)-methyl)phenyl)-1H-pyrazole-4-carboxylic acid]
times higher activity compared to C0001 ([3]; EC50, KARS1-induced cell migration): approximately 10 times
inhibition at 1 µM ([3]; Mus musculus, RAW264.7): 99.7%

Compound: NC(=O)c1ccc(CCN(Cc2ccc(N3CC[C@H](C(=O)O)C3)cc2)c2nc3cccc(F)c3s2)cc1 [Compound 48, (S)-1-(4-(((4-carbamoylphenethyl)(7-fluorobenzo[d]thiazol-2-yl)amino)methyl)phenyl)pyrrolidine-3-carboxylic acid]
inhibition at 1 µM ([3]; Mus musculus, RAW264.7): 36.6%

Compound: O=C(O)[C@H]1CCN(c2ccc(CN(CCn3ccccc3=O)c3nc4cccc(F)c4s3)cc2)C1 [Compound 49, (S)-1-(4-(((7-fluorobenzo[d]thiazol-2-yl)(2-(2-oxopyridin-1(2H)-yl)ethyl)amino)methyl)phenyl)pyrrolidine-3-carboxylic acid]
inhibition at 1 µM ([3]; Mus musculus, RAW264.7): 34.8%
